System: WHHLMI rabbit
Experiment: Xanthomatosis-inhibiting activity in rabbit model (extent of limb xanthoma at digital joints)
Type: in vivo
Conditions: male WHHLMI rabbit, digital joints of forelegs and hind legs; for Distribution of Severity: − (no occurrence), count of limb xanthoma assessments: control 2; for Distribution of Severity: +++ (mass), count of limb xanthoma assessments: control 4; for Distribution of Severity: + (dotting of granule), count of limb xanthoma assessments: control 8; for Distribution of Severity: ++ (scattering), count of limb xanthoma assessments: control 26
Protocol: A vehicle or the test compound 1 was orally administered to a 2 months old male WHHLMI rabbit (10 to 11 animals/group) in an amount of 100, 200 mg/kg in a mixed diet for 32 weeks. After the administration for 32 weeks, xanthoma was evaluated at the digital joints of forelegs and hind legs (Table 1). The extent of limb xanthoma was assessed by classifying into four stages: no occurrence (−), dotting of granule (+), scattering (++), mass (+++)

[1] = 100 mg/kg orally in mixed diet for 32 weeks
[2] = 200 mg/kg orally in mixed diet for 32 weeks

Structure (SMILES): COc1cccc([C@H]2O[C@H](CC(=O)N3CCC(CC(=O)O)CC3)C(=O)N(CC(C)(C)COC(C)=O)c3ccc(Cl)cc32)c1OC [Test compound 1, N-{[(3R,5S)-1-(3-acetoxy-2,2-dimethylpropyl)-7-chloro-5-(2,3-dimethoxyphenyl)-2-oxo-1,2,3,5-tetrahydro-4,1-benzoxazepin-3-yl}acetyl}piperidine-4-acetic acid]
- Distribution of Severity: − (no occurrence), count of limb xanthoma assessments [1]: 4
- Distribution of Severity: +++ (mass), count of limb xanthoma assessments [1]: 0
- Distribution of Severity: + (dotting of granule), count of limb xanthoma assessments [1]: 13
- Distribution of Severity: ++ (scattering), count of limb xanthoma assessments [1]: 27
- Distribution of Severity: − (no occurrence), count of limb xanthoma assessments [2]: 0
- Distribution of Severity: +++ (mass), count of limb xanthoma assessments [2]: 0
- Distribution of Severity: + (dotting of granule), count of limb xanthoma assessments [2]: 29
- Distribution of Severity: ++ (scattering), count of limb xanthoma assessments [2]: 15

Source: patent publication US20090082333A1, “REMEDY FOR XANTHOMA” (NATIONAL UNIVERSITY CORPORATION KOBE UNIVERSITY, priority 2005, published 2009)
